Assay results reported in patent US7132437B2, “Renal-selective biphenylalkyl 1H-substituted-1,2,4-triazole angiotensin II antagonists for treatment of hypertension” (G.D. Searle, priority 1990, dated 2006).

Target: T1, smooth muscle angiotensin II receptor
T1 construct: Rat uterine membranes were prepared from fresh tissue
Test: Assay A: Angiotensin II Binding Activity
Settings: rat uterine membrane preparation, displacement of 125I-AII
Procedure: Assay A: Angiotensin II Binding Activity
Compounds of Formula I were tested for ability to bind to the smooth muscle angiotensin II receptor using a rat uterine membrane preparation. […] Other chemicals were obtained from Sigma Chemical Co. This assay was carried out according to the method of Douglas et al [Endocrinology, 106, 120–124 (1980)]. Rat uterine membranes were prepared from fresh tissue. All procedures were carried out at 4° C. Uteri were stripped of fat and homogenized in phosphate-buffered saline at pH 7.4 containing 5 mM EDTA. The homogenate was centrifuged at 1500×g for 20 min., and the supernatant was recentrifuged at 100,000×g for 60 min. The pellet was resuspended in buffer consisting of 2 mM EDTA and 50 mM Tris-HCl (pH 7.5) to a final protein concentration of 4 mg/ml. […] The reaction was initiated by the addition of membrane protein and the mixture was incubated at 25° C. for 60 min. The incubation was terminated with ice-cold 50 mM Tris-HCl (pH 7.5) and the mixture was filtered to separate membrane-bound labelled peptide from the free ligand. The incubation tube and filter were washed with ice-cold buffer. Filters were assayed for radioactivity in a Micromedic gamma counter. Nonspecific binding was defined as binding in the presence of 10 μM of unlabelled AII. Specific binding was calculated as total binding minus nonspecific binding. […] Binding data were analyzed by a nonlinear least-squares curve fitting program.

| Compound | IC50 |
| --- | --- |
| 1,1-dimethylethyl [3-butyl-[1-2′-(1H-tetrazol-5-yl)[1,1′-biphenyl]-4-ylmethyl]-1H-1,2,4-triazol-5-yl]methylcarbamate [Example 34] | 640 nM |
| CCCCc1nc(Cl)n(Cc2ccc(-c3ccccc3C(=O)O)cc2)n1 (single isomer, unassigned) [Example 8, 4′-[(3-butyl-5-chloro-1H-1,2,4-triazol-1-yl)methyl][1,1′-biphenyl]-2-carboxylic acid] | 17000 nM |
| CCCCCCCCc1nc(CCCC)n(Cc2ccc(-c3ccccc3-c3nnn[nH]3)cc2)n1 (single isomer, unassigned) [Example 29, 5-[4′-[(5-butyl-3-octyl-1H-1,2,4-triazol-1-yl)methyl][1,1′-biphenyl]-2-yl]-1H-tetrazole] | 160 nM |
| CCCCc1nc(C)n(Cc2ccc(-c3ccccc3-c3nnn[nH]3)cc2)n1 (single isomer, unassigned) [Example 33, 5-[4′-[(3-butyl-5-methyl-1H-1,2,4-triazol-1-yl)methyl][1,1′-biphenyl]-2-yl]-1H-tetrazole] | 630 nM |
| CCCCc1nc(CC(OCC)OCC)nn1Cc1ccc(-c2ccccc2-c2nnn[nH]2)cc1 (single isomer, unassigned) [Example 38, 5-[4′-[[5-butyl-3-(2,2-diethyoxyethyl)-1H-1,2,4-triazol-1-yl]methyl][1,1′-biphenyl]-2-yl]-1H-tetrazole] | 10 nM |
| CCCCc1nc(CC)n(Cc2ccc(-c3ccccc3-c3nnn[nH]3)cc2)n1 (single isomer, unassigned) [Example 40, 5-[4′-[(3-butyl-5-ethyl-1H-1,2,4-triazol-1-yl)methyl][1,1′-biphenyl]-2-yl]-1H-tetrazole] | 83 nM |
| CCCCc1nc(CCC2CCCCC2)nn1Cc1ccc(-c2ccccc2-c2nnn[nH]2)cc1 (single isomer, unassigned) [Example 43, 5-[4′-[[5-butyl-3-(2-cyclohexylethyl)-1H-1,2,4-triazol-1-yl]methyl][1,1′-biphenyl]-2-yl]-1H-tetrazole] | 19 nM |
| CCCCc1nc(C(F)F)n(Cc2ccc(-c3ccccc3-c3nnn[nH]3)cc2)n1 (single isomer, unassigned) [Example 48, 5-[4′-[[3-butyl-5-(difluoromethyl)-1H-1,2,4-triazol-1-yl]methyl][1,1′-biphenyl]-2-yl]-1H-tetrazole] | 680 nM |
| CCCCc1nc(C(F)(F)CCC)n(Cc2ccc(-c3ccccc3C(=O)O)cc2)n1 [Example 11, 4′-[[3-butyl-5-(1,1-difluorobutyl)-1H-1,2,4-triazol-1-yl]methyl][1,1′-biphenyl]-2-carboxylic acid] | 160 nM |
| CCCCc1nc(CNC(C)=O)nn1Cc1ccc(-c2ccccc2-c2nnn[nH]2)cc1 [Example 31, N-[[5-butyl-1-[2′-(1H-tetrazol-5-yl)[1,1′-biphenyl]-4-ylmethyl]-1H-1,2,4-triazol-3-yl]methyl]acetamide] | 14 nM |
| CCCCc1nc(C(F)(F)C(F)(F)C(F)(F)F)nn1Cc1ccc(-c2ccccc2-c2nnn[nH]2)cc1 [Example 70, 5-[4′-[[3-(1,1,2,2,3,3,3-heptafluoropropyl)-5-butyl-1H-1,2,4-triazol-1-yl]methyl][1,1′-biphenyl]-2-yl]-1H-tetrazole] | 44 nM |
